According to PMC7497692 (Investigational New Drugs, 2020):

Columns and labels:
[1] = Metabolite profiling and identification in plasma, urine and feces (part A); format: in vivo, human healthy male volunteers; details: male, human, in vivo; for half-life: apparent t½ of metabolite in plasma; for tmax: tmax of metabolite in plasma
Method: Participants were hospitalized from day 1 to day 16 of the study, and further assessed on days 19, 22, and 25 (trial end). […] Pre-dose feces and urine samples were collected on day 1 and day 2, respectively. Urine was collected at 4- to 12-h intervals on day 1 and every 24 h thereafter up to day 16. Feces were collected every 24 h up to day 16. Provision was made to collect further samples up to day 39 if >1% of the administered dose was detectable in the total (urine and feces) excreta per day on two consecutive measurements.
Metabolite profiling and structure elucidation in plasma, urine, and feces were performed at the Institute of Drug Metabolism and Pharmacokinetics, Merck KGaA, Grafing, Germany, using a radiometric UPLC method coupled to a high-resolution MS. For urine and feces, metabolites were identified in a single pooled sample per matrix and subject (urine pool of 4–120 h and feces pool of 0–192 h), that covered at least 90% of the total radioactivity of the respective matrix excreted. Intervals with low radioactivity were not used for the generation of the pooled samples to avoid dilution, and to increase the signal-to-noise ratio of the respective chromatograms.
The metabolite structure elucidation was performed using the linear trap quadrupole Orbitrap XL hybrid Fourier transform (FT) MS (Thermo Scientific, Dreieich, Germany) coupled to a Waters Acquity UPLC system. Full-scan FT spectra were acquired for measurement of the masses of molecular ions of parent and metabolites. MS^2 fragmentation spectra were acquired after high-energy collisional dissociation of the appropriate molecular ions. Allocation and confirmation of the proposed metabolites to the radioactive peaks were performed using an API4000 QTrap (AB Sciex, Darmstadt, Germany) MS with simultaneous splitting using a fraction collection system (CTC HTS PAL Fraction Collector, Axel Semrau, Sprockhövel, Germany), and offline radioactive measurement using a Topcount NXT® microplate scintillation counter (PerkinElmer, Rodgau, Germany).
The maximum plasma concentration (Cmax) and time to reach maximum concentration (tmax) were derived directly from the plasma concentration–time data. Lag time (tlag) was the time prior to the first measurable (non-zero) concentration. The area under the plasma concentration–time curve from 0 to t (last measurable concentration; AUC0–t) was calculated using a mixed log–linear trapezoidal method. Area under the plasma concentration–time curve until the last sampling time (AUCall), which corresponds to AUC0–240 h within the observation period, was used for metabolite calculations. Amounts excreted in urine, feces, and total (urine + feces) were calculated as the sum of amounts (concentration multiplied by volume) for each collection from time 0 to time t. The terminal rate constant (λz) was used to estimate the terminal half-life (t½) (ln 2/λz), and the area under the concentration–time curve from time 0 to infinity (AUC0–∞). Total body clearance (CL) and apparent body clearance (CL/f) were determined by dose/AUC0–∞, and total volume of distribution (Vz) and apparent volume of distribution (Vz/f) were calculated by dose/(AUC0–∞*λz) after IV and oral administration, respectively. Volume of distribution of the central compartment (Vc) was derived by dividing the dose by the initial drug plasma concentration after IV administration. Absolute bioavailability was calculated as F = (AUCoral/doseoral)/(AUCIV/doseIV) × 100. The ratios (%) AUCtepotinib or metabolite/AUCtotal radioactivity were calculated as a percentage of the molar AUCs.

[2] = Protein binding and blood cell affinity of M506; format: in vitro ADME

half-life ([1]; median): 92 h
half-life ([1]; range): 66 to 145 h
% of AUCall of total 14C-radioactivity in plasma ([1]; po): 41%
tmax ([1]; po, median): 24 h
tmax ([1]; po, range): 24 to 60 h
affinity for blood cells [2]: low affinity for blood cells
protein binding [2]: highly protein-bound
Structure (SMILES): CN1CCC(COc2cnc(-c3cccc(Cn4nc(-c5cccc(C#N)c5)ccc4=O)c3)nc2)CC1=O (stereo not shown) [M506]
